Laboratory results taken from PubChem BioAssay AID330 (DTP/NCI, 2004).
Values joined by “and” are separate entries in the source; they are usually repeats but may differ in a detail not shown here. Equal entries are not always repeated. Toxic doses and inconclusive results are not listed.

Tested on: P388 leukemia ip, CD2F1 mice, survival T/C
Assay: NCI In Vivo Anticancer Drug Screen. Data for tumor model P388 Leukemia (intraperitoneal) in CD2F1 (CDF1) mice
Conditions: endpoint: median survival time, higher = longer survival
In short: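 Mice carrying the transplanted tumor received test compound or vehicle. Survival was recorded in each group, and the value is the treated-group measurement divided by that of the vehicle-treated control group.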

[1] = dose: 50.0 mg/kg/injection, schedule: Q01DX005 (ip), vehicle: Klucel (hydroxypropylcellulose) (HPC)
[2] = dose: 100.0 mg/kg/injection, schedule: Q01DX005 (ip), vehicle: Klucel (hydroxypropylcellulose) (HPC)
[3] = dose: 200.0 mg/kg/injection, schedule: Q01DX005 (ip), vehicle: Klucel (hydroxypropylcellulose) (HPC)
[4] = dose: 50.0 mg/kg/injection, schedule: Q01DX009 (ip), vehicle: Klucel (hydroxypropylcellulose) (HPC)
[5] = dose: 12.5 mg/kg/injection, schedule: Q01DX009 (ip), vehicle: saline with Tween-80
[6] = dose: 25.0 mg/kg/injection, schedule: Q01DX009 (ip), vehicle: saline with Tween-80
[7] = dose: 100.0 mg/kg/injection, schedule: Q01DX009 (ip), vehicle: Klucel (hydroxypropylcellulose) (HPC)
[8] = dose: 200.0 mg/kg/injection, schedule: Q01DX009 (ip), vehicle: Klucel (hydroxypropylcellulose) (HPC)
[9] = dose: 50.0 mg/kg/injection, schedule: Q01DX009 (ip), vehicle: saline with Tween-80
[10] = dose: 100.0 mg/kg/injection, schedule: Q01DX009 (ip), vehicle: saline with Tween-80
[11] = dose: 200.0 mg/kg/injection, schedule: Q01DX009 (ip), vehicle: saline with Tween-80
[12] = dose: 60.0 mg/kg/injection, schedule: Q01DX005 (ip), vehicle: Klucel (hydroxypropylcellulose) (HPC)
[13] = dose: 120.0 mg/kg/injection, schedule: Q01DX005 (ip), vehicle: Klucel (hydroxypropylcellulose) (HPC)
[14] = dose: 240.0 mg/kg/injection, schedule: Q01DX005 (ip), vehicle: Klucel (hydroxypropylcellulose) (HPC)
[15] = dose: 6.25 mg/kg/injection, schedule: Q01DX009 (ip), vehicle: saline with Tween-80

## O=C(CNc1ccc(Cl)cc1)c1ccc(Cl)cc1
[1]
  T/C: 107 % of control
[2]
  T/C: 99 % of control
[3]
  T/C: 90 % of control

## CC(=NC(C)(C)C)N1CCOCC1
dose: 50.0 mg/kg/injection, schedule: Q01DX009 (ip), vehicle: saline + Tween-80 + alcohol
  T/C: 101 % of control
dose: 100.0 mg/kg/injection, schedule: Q01DX009 (ip), vehicle: saline + Tween-80 + alcohol
  T/C: 100 % of control
dose: 200.0 mg/kg/injection, schedule: Q01DX009 (ip), vehicle: saline + Tween-80 + alcohol
  T/C: 88 % of control

## NNS(=O)(=O)c1ccc(Cl)cc1
dose: 25.0 mg/kg/injection, schedule: Q01DX009 (ip), vehicle: other
  T/C: 117 % of control
dose: 50.0 mg/kg/injection, schedule: Q01DX009 (ip), vehicle: other
  T/C: 113 % of control
dose: 100.0 mg/kg/injection, schedule: Q01DX009 (ip), vehicle: other
  T/C: 120 % of control
dose: 200.0 mg/kg/injection, schedule: Q01DX009 (ip), vehicle: other
  T/C: 120 % of control

## C=CC12CCCCC1CCC(=O)C2 (stereo unspecified)
[4]
  T/C: 111 % of control

## N#CC1CC2(CCC1=O)c1ccccc1-c1ccccc12 (stereo unspecified)
dose: 25.0 mg/kg/injection, schedule: Q04DX002 (ip), vehicle: saline with Tween-80
  T/C: 92 % of control
dose: 50.0 mg/kg/injection, schedule: Q04DX002 (ip), vehicle: saline with Tween-80
  T/C: 98 % of control

## COc1cc2c(c(OC)c1OC)-c1ccc(OC)c(=O)cc1[C@@H](N(C)C(C)=O)CC2
dose: 0.31 mg/kg/injection, schedule: Q01DX009 (ip), vehicle: Klucel (hydroxypropylcellulose) (HPC)
  T/C: 157 % of control and 187 % of control
dose: 0.62 mg/kg/injection, schedule: Q01DX009 (ip), vehicle: Klucel (hydroxypropylcellulose) (HPC)
  T/C: 181 % of control

## Oc1ccccc1C=NCc1ccccc1.[CH-]=C([CH2-])C.[Pd+2]
dose: 6.25 mg/kg/injection, schedule: Q01DX009 (ip), vehicle: Klucel (hydroxypropylcellulose) (HPC)
  T/C: 107 % of control
dose: 6.25 mg/kg/injection, schedule: Q04DX003 (ip), vehicle: Klucel (hydroxypropylcellulose) (HPC)
  T/C: 92 % of control
dose: 12.5 mg/kg/injection, schedule: Q01DX009 (ip), vehicle: Klucel (hydroxypropylcellulose) (HPC)
  T/C: 106 % of control
dose: 12.5 mg/kg/injection, schedule: Q04DX003 (ip), vehicle: Klucel (hydroxypropylcellulose) (HPC)
  T/C: 113 % of control
dose: 25.0 mg/kg/injection, schedule: Q01DX009 (ip), vehicle: Klucel (hydroxypropylcellulose) (HPC)
  T/C: 106 % of control
dose: 25.0 mg/kg/injection, schedule: Q04DX003 (ip), vehicle: Klucel (hydroxypropylcellulose) (HPC)
  T/C: 111 % of control

## Cc1cc(NCCCN(C)C)c2ccc3c(ccc4c(NCCCN(C)C)cc(C)nc43)c2n1
[5]
  T/C: 98 % of control
[6]
  T/C: 118 % of control

## COC(=O)C1=C(C(=O)OC)C2OC1c1cc3ccccc3cc12
dose: 7.5 mg/kg/injection, schedule: Q01DX005 (ip), vehicle: saline with Tween-80
  T/C: 113 % of control
dose: 15.0 mg/kg/injection, schedule: Q01DX005 (ip), vehicle: saline with Tween-80
  T/C: 113 % of control
dose: 30.0 mg/kg/injection, schedule: Q01DX005 (ip), vehicle: saline with Tween-80
  T/C: 108 % of control
dose: 60.0 mg/kg/injection, schedule: Q01DX005 (ip), vehicle: saline with Tween-80
  T/C: 97 % of control

## COc1ccccc1-n1c(C)nc2c(cnn2CN2CCCCC2)c1=O
[1]
  T/C: 99 % of control
[2]
  T/C: 115 % of control
[3]
  T/C: 101 % of control

## COc1ccc(C2NC(=S)NC(=O)C2C#N)cc1OC (stereo unspecified)
[4]
  T/C: 98 % of control
[7]
  T/C: 98 % of control
[8]
  T/C: 95 % of control

## CCCCCCCCCCCCCCCCCC(=O)CC(=O)C(F)(F)F (tested in a mixture with another compound)
[9]
  T/C: 91 % of control
[10]
  T/C: 92 % of control

## O=S(=O)(NCCSSCCNS(=O)(=O)c1cccc2cccnc12)c1cccc2cccnc12
[4]
  T/C: 100 % of control
[7]
  T/C: 89 % of control
[8]
  T/C: 91 % of control

## Cc1ccn2c(C(C)O)nnc2c1 (stereo unspecified)
[9]
  T/C: 93 % of control
[10]
  T/C: 90 % of control
[11]
  T/C: 100 % of control

## ClC1c2ccccc2Cc2cccnc21 (stereo unspecified)
[9]
  T/C: 102 % of control
[10]
  T/C: 101 % of control
[11]
  T/C: 95 % of control

## N#Cc1c(-c2ccc(Cl)cc2)c(-c2ccc(Cl)cc2)n[nH]c1=O
[1]
  T/C: 100 % of control
[2]
  T/C: 99 % of control
[3]
  T/C: 104 % of control

## O=C1c2ccccc2-c2nc3ccccc3nc21
dose: 50.0 mg/kg/injection, schedule: Q01DX005 (ip), vehicle: saline with Tween-80
  T/C: 94 % of control
dose: 100.0 mg/kg/injection, schedule: Q01DX005 (ip), vehicle: saline with Tween-80
  T/C: 94 % of control

## COc1cc(NS(=O)(=O)c2ccccc2)c2nc3ccc(Cl)cc3nc2c1
[12]
  T/C: 96 % of control
[13]
  T/C: 90 % of control
[14]
  T/C: 89 % of control

## COC1OC2COC(c3ccccc3)OC2C(OS(=O)(=O)c2ccc(C)cc2)C1OS(=O)(=O)c1ccc(C)cc1 (stereo unspecified)
[15]
  T/C: 114 % of control
[5]
  T/C: 114 % of control
[6]
  T/C: 108 % of control and 111 % of control
[10]
  T/C: 87 % of control
[11]
  T/C: 91 % of control

## O=C1CSC(=S)N1c1ccc(Cl)c(C(F)(F)F)c1
dose: 50.0 mg/kg/injection, schedule: Q01DX009 (ip), vehicle: suspension in saline
  T/C: 108 % of control
dose: 100.0 mg/kg/injection, schedule: Q01DX009 (ip), vehicle: suspension in saline
  T/C: 101 % of control
dose: 200.0 mg/kg/injection, schedule: Q01DX009 (ip), vehicle: suspension in saline
  T/C: 104 % of control

## Cc1ncn2ncnc2c1C
dose: 25.0 mg/kg/injection, schedule: Q04DX003 (ip), vehicle: saline with Tween-80
  T/C: 103 % of control
dose: 50.0 mg/kg/injection, schedule: Q04DX003 (ip), vehicle: saline with Tween-80
  T/C: 104 % of control
dose: 100.0 mg/kg/injection, schedule: Q04DX003 (ip), vehicle: saline with Tween-80
  T/C: 101 % of control and 93 % of control

## CCOC(=O)N1C=CC(C(=O)OC)=CC=C1C(=O)OC
[1]
  T/C: 98 % of control
[2]
  T/C: 95 % of control
[3]
  T/C: 94 % of control

## COc1cc2c(cc1Br)C(=O)C(Br)(Br)CCC2Br (stereo unspecified)
[4]
  T/C: 118 % of control
[7]
  T/C: 118 % of control
[8]
  T/C: 114 % of control

## CC1=C(C)C(=O)OC1
dose: 60.0 mg/kg/injection, schedule: Q01DX005 (ip), vehicle: saline
  T/C: 108 % of control
dose: 120.0 mg/kg/injection, schedule: Q01DX005 (ip), vehicle: saline
  T/C: 107 % of control
dose: 240.0 mg/kg/injection, schedule: Q01DX005 (ip), vehicle: saline
  T/C: 101 % of control

## COc1cc(O)cc2c1CCC(c1ccccc1)O2 (stereo unspecified)
dose: 1.8 mg/kg/injection, schedule: Q01DX005 (ip), vehicle: Klucel + Tween-80
  T/C: 107 % of control
dose: 3.5 mg/kg/injection, schedule: Q01DX005 (ip), vehicle: Klucel + Tween-80
  T/C: 107 % of control
dose: 7.0 mg/kg/injection, schedule: Q01DX005 (ip), vehicle: Klucel + Tween-80
  T/C: 97 % of control
dose: 14.0 mg/kg/injection, schedule: Q01DX005 (ip), vehicle: Klucel + Tween-80
  T/C: 100 % of control

## COC1C(OC2CCC3(C=O)C4CCC5(C)C(C6=CC(=O)OC6)CCC5(O)C4CCC3(O)C2)OC(C)C(O)C1OC (stereo unspecified)
dose: 0.35 mg/kg/injection, schedule: Q01DX009 (ip), vehicle: saline
  T/C: 99 % of control
dose: 0.7 mg/kg/injection, schedule: Q01DX009 (ip), vehicle: saline
  T/C: 100 % of control
dose: 1.4 mg/kg/injection, schedule: Q01DX009 (ip), vehicle: saline
  T/C: 100 % of control
dose: 2.8 mg/kg/injection, schedule: Q01DX009 (ip), vehicle: saline
  T/C: 100 % of control

## ClC1=CN(C2=NCCC2)CC1
[15]
  T/C: 101 % of control
[5]
  T/C: 103 % of control
[6]
  T/C: 97 % of control

## COc1ccc(-c2cscc2N)cc1
[12]
  T/C: 114 % of control
[13]
  T/C: 118 % of control
[14]
  T/C: 97 % of control

## CNc1ncnc2ccccc12
[6]
  T/C: 100 % of control
[9]
  T/C: 95 % of control
[10]
  T/C: 89 % of control

## N#Cc1ccc(=O)[nH]c1O
[9]
  T/C: 99 % of control
[10]
  T/C: 100 % of control
